Source: ChEMBL document CHEMBL1140009, “Synthesis, determination of stereochemistry, and evaluation of new bisindole alkaloids from the myxomycete Arcyria ferruginea: an approach for Wnt signal inhibitor” (Bioorg Med Chem Lett, 2007)

Tested on: Cancer cell lines
Test: Inhibition of Wnt signal in cancer cells by luciferase reporter gene assay
Format: cell-based
Details: Homo sapiens

Row | Compound | Activity
1 | O=C1NC(=O)c2c1c1c3ccc(O)cc3[nH]c1c1[nH]c3cc(O)ccc3c21 | Dose-dependent effect
2 | O=C1NC(=O)[C@@H](c2c[nH]c3cc(O)ccc23)[C@H]1c1c[nH]c2cc(O)ccc12 | Dose-dependent effect
